SMILES strings stand for the structures.

Melting point data for 113 compounds are collected here from a melting point compilation (Tetko et al.).

As for `Cc1ccc(C(O)c2ccccc2O)cc1` (stereo not drawn), the melting point amounted to 105 °C.
`Cc1cc(Oc2ccc(C(F)(F)F)cc2[N+](=O)[O-])ccc1Cl` registered a melting point of 57 to 59 °C.
`Cc1cc(O)c(C(C)(C)C)cc1C(C)(C)C` came in with a melting point of 62.1 °C.
On to `Cn1nc(C(C)(C)C)cc1N`, for which the melting point is 157 °C.
Then `CCCCCCCCCCCCCCCCCCCCCC(=O)OC`, with 54 °C; and `Oc1ccc(Nc2ccc(O)cc2)cc1`, with 174 °C.
Under `COP(=O)(OC)OC(=CCl)c1ccc(Cl)cc1Cl` stands 69.5 °C; under `CC(C)(C)c1cc(N=Nc2cc(C(C)(C)C)cc(C(C)(C)C)c2O)c(O)c(C(C)(C)C)c1`, 246 to 247 °C; under `CSc1nc(=O)[nH]c2c1CCCC2`, 264 to 266 °C.
Then `Cc1nc(N)nc(Cl)c1Cc1ccccc1`, with 195 to 196 °C.
Regarding `Nc1ccc2c(C(F)(F)F)cc(=O)oc2c1`, the melting point turned out to be 223 °C.
With `Cc1ccc(C)n1-c1cc([N+](=O)[O-])ccc1F`, the melting point fell in the range of 56 to 58 °C.
`COc1ccccc1C=C1C(=O)NN=C1c1c(O)c2ccccc2n(C)c1=O` came in with a melting point of 266 °C.
On to `CCSC(=O)N(CC)C1CCCCC1`, for which the melting point was 11.5 °C.
`CC(C)NCC(O)COc1ccc(CCOCC2CC2)cc1` (stereo not drawn) gave a melting point of 71 °C.
`CC(=Cc1ccccc1)c1ccccc1` yielded a melting point of 82 °C.
Under `O=C(O)C=CCCCCCCCCC(=O)O` stands 166 °C; under `OC(CCN1CCCCC1)(c1ccccc1)C1CC2C=CC1C2` (stereo not drawn), 114 °C.
With `NC(=O)C=Cc1ccccc1`, the melting point came out at 149 °C.
Then `C1OCC2(CO1)COCOC2`, with 48.3 °C.
`Cc1ccc2nc(C)[nH]c2c1`: the melting point came out at 203 °C.
`CCSc1nc(NC(C)C)nc(NC(C)C)n1`: the melting point was 105 °C.
For the compound `Cc1cc(C)c(CC(O)c2cc3ccccc3o2)c(C)c1` (stereo not drawn), the melting point was in the range of 75 to 76 °C.
`O=C(Nc1ccccc1Cl)c1ccccc1`: the melting point came to 99 °C.
Regarding `C1CSC2=C(S1)SC(=C1SC3=C(SCCS3)S1)S2`, the melting point is 244 °C.
For the compound `N=C1NCCS1`, the melting point came to 85.3 °C.
As for `COc1ccc(OC)c(C(=O)O)c1`, the melting point is 77 °C.
The compound `Oc1cccc(O)c1Cc1c(O)cccc1O` gave a melting point of 255 °C.
Regarding `CCCOC(=O)C1=C(C)NC(=S)NC1c1ccco1` (stereo not drawn), the melting point came to 177 °C.
Compound `Cc1ccc(Cl)c(O)c1F` displayed a melting point of 48 °C.
`OCc1cc(OCc2ccccc2)cc(OCc2ccccc2)c1` showed a melting point of 78 to 82 °C.
In turn, `CCC(=O)OC1CCC2C3CCC4=CC(=O)CCC4(C)C3CCC12C` (stereo not drawn) yielded a melting point of 120 °C.
In turn, `Nc1nc(CC(=O)O)cs1` returned a melting point of 118 °C.
Turning to `COc1ccc(NN=c2c(C)nc3ccccc3[nH]c2=O)cc1`, the melting point was 196 °C.
Under `Cc1cc(C)c(O)c(C)c1C` stands 80.5 °C; under `Nc1ncnc2[nH]cnc12`, 360 to 365 °C; under `Cn1ccc2cc(Br)ccc21`, 43 to 44 °C.
As to `CC1COc2ccccc2N1C(=O)C(Cl)Cl` (stereo not drawn), the melting point stood at 108 °C.
As for `O=C(/C(=N\Nc1cccc(O)c1)S(=O)(=O)c1ccccc1)c1ccc(Cl)cc1`, the melting point was 125 °C.
With `CCN(C(=S)Cl)c1ccccc1`, the melting point fell in the range of 56 to 58 °C.
Compound `COc1ccc(CC(=O)O)c(OC)c1OC` yielded a melting point of 99 to 101 °C.
Compound `Cc1ccc(N)c(C)c1` gave a melting point of 16 °C.
`COc1cccc(OCc2ccccc2Cl)c1C#N` yielded a melting point of 152 to 154 °C.
Then `O=C1CC(c2cccc(C3=NN(c4ccccc4)C(=O)C3)c2)=NN1c1ccccc1`, with 263 °C; and `Nc1ncccc1O`, with 170 to 176 °C.
`CC(C)Nc1cccnc1N1CCN(C(=O)c2cc3cc(NS(C)(=O)=O)ccc3[nH]2)CC1` showed a melting point of 226 °C.
`NC(=NO)c1ccc2ccccc2c1` came in with a melting point of 150 to 151 °C.
The compound `CCCCCC(O)C=CC1C(O)CC(O)C1CC=CCCCC(=O)O` (stereo not drawn) returned a melting point of 30 °C.
Then `CCOC(=O)C(Br)C(Br)c1ccccc1` (stereo not drawn), with 77 to 79 °C; and `O=C1CC2C(CC(OC(=O)c3ccc(-c4ccccc4)cc3)C2CO)O1` (single isomer, unassigned; (-)), with 128 to 134 °C.
Under `O=C(O)CCC(F)(F)F` stands 31 °C; under `CCOC(=O)Cc1cccc2ccccc12`, 88.5 °C; under `CC(C)CCCC(C)C1CCC2C3CC(=O)C4(O)CC(=O)CCC4(C)C3CCC12C` (stereo not drawn), 222 °C.
In turn, `CCCCC(C#N)(Cn1ccnc1)c1ccccc1` (stereo not drawn) had a melting point of 161 °C.
Under `NC(=O)c1ccccc1C(F)(F)F` stands 163 °C; under `Cc1nn(C)c(C)c1N=C=O`, 36 to 40 °C.
As for `CC1=Nc2c(ccc3ccccc23)C1(C)C`, the melting point amounted to 71 °C.
Then `CC1CCC(=O)C1=O` (stereo not drawn), with 105 to 110 °C; and `O=[N+]([O-])c1ccccc1CCO`, with 2 °C.
Compound `O=C(O)c1cccnc1Oc1ccc(F)cc1` had a melting point of 187 to 189 °C.
`FC(F)(F)C(F)(F)C(F)(F)C(F)(F)C(F)(F)C(F)(F)I`: the melting point is -45 °C.
Under `COc1ccc2c(c1)CCC1C2CCC2(C)C(=O)C(Cl)CC12` (stereo not drawn) stands 180 °C; under `COc1ccc(C(C)=O)c(F)c1`, 52 °C.
Turning to `CC(C)(C)OC(=O)C(C)(C)ON=C(C(=O)O)c1csc(N)n1`, the melting point was 180 °C.
`OCc1ccco1` yielded a melting point of -14.6 °C.
In turn, `O=C(NCC(c1ccccc1)c1ccccc1)c1ccccc1` showed a melting point of 123 °C.
In turn, `NNC(=O)c1cc2ccccc2s1` yielded a melting point of 186 °C.
For the compound `Sc1c(Cl)cccc1Cl`, the melting point lay within 45 to 50 °C.
The compound `N#Cc1cccc2c(NC(=O)c3ccccc3)cccc12` gave a melting point of 211 to 212 °C.
Turning to `O=C1C=Cc2ccccc2C1=O`, the melting point is 136 to 141 °C.
The compound `N#CC(Cc1ccc([N+](=O)[O-])cc1)c1ccccc1` (stereo not drawn) displayed a melting point of 134 °C.
For the compound `Cc1cc(Br)cc(C)c1O`, the melting point came to 76 °C.
Then `O=c1cccccc1`, with -7 °C.
The compound `N#CCCn1ccnc1-c1ccccc1` gave a melting point of 99.5 to 102 °C.
Under `COC(=O)c1ccccc1SC` stands 65 °C; under `COC1C(C(O)CO)OC2OC3(CCCCC3)OC21` (stereo not drawn), 98 to 102 °C; under `Nc1ccc(C2SCCS2)cc1`, 57 to 59 °C.
In turn, `O=Cc1cc(O)ccc1I` had a melting point of 125 to 126 °C.
`C#CC[C@H](NC(=O)OCC1c2ccccc2-c2ccccc21)C(=O)O` came in with a melting point of 175 °C.
Then `O=C(Cl)c1ccccc1Cl`, with -4 °C; and `C=C1OC(=O)OC1(C)C`, with 26 to 30 °C.
Regarding `Cn1nc(-c2cccs2)cc1CN`, the melting point lay within 77 to 78 °C.
Compound `Cc1cc2c(c(C)c1C)CC2` showed a melting point of 38 °C.
Under `CC(O)C(O)(c1ccccc1)c1ccccc1` (stereo not drawn) stands 92 °C; under `CN(C)C(=O)[C@@H](O)[C@H](O)C(=O)N(C)C`, 186 to 188 °C; under `CCCCCOC(=O)COc1cc(N2C(=O)C3=C(CCCC3)C2=O)c(F)cc1Cl`, 89 °C.
For `CNC(=Nc1ncccc1C)SC`, the melting point lay in the range of 25 to 27 °C.
Under `COc1ccc(-c2csc(/C(C#N)=C/c3ccccc3Cl)n2)cc1` stands 222 °C.
Turning to `Cc1cc(Br)cc(Cl)c1O`, the melting point is 45 to 47 °C.
Compound `CC(C)(C)c1ccc(OCC#N)cc1` yielded a melting point of 69 °C.
`NS(=O)(=O)c1cc(F)c(Br)cc1F` displayed a melting point of 165 °C.
Then `NC(=O)C12CCN(CC1)CC2`, with 235 to 237 °C.
The compound `O=Cc1c(F)cccc1Cl` yielded a melting point of 37 °C.
`N#CC1(c2ccc(F)cc2Cl)CCCC1` yielded a melting point of 49 to 52 °C.
The compound `O=C(O)c1onc2ccccc12` showed a melting point of 185 °C.
With `O=S1(=O)CCN(Cc2ccccc2)CC1`, the melting point was 85 to 86 °C.
The compound `O=C(O)c1ccc(O)cc1Cl` registered a melting point of 207 to 209 °C.
As for `Brc1ccc(Oc2ccc(Br)cc2Br)cc1`, the melting point was in the range of 64 to 64.5 °C.
`NNC(=O)CSc1ccnc2cc(Cl)ccc12` yielded a melting point of 213 to 216 °C.
Compound `Cn1c(=O)c(C2=NNC(=O)C2=NNc2ccccc2)c(O)c2ccccc21` returned a melting point of 213 °C.
Under `CCOC(=O)C(C)=O` stands -50 °C; under `O=C(/C=C/Nc1ccccc1)c1ccc2c(c1)CCCC2`, 175 °C.
With `COc1cc2c(cc1OC)OC(C)(C)C=C2`, the melting point worked out at 46 °C.
`COc1cc(C(F)(F)F)nc2ccc(C)c([N+](=O)[O-])c12` showed a melting point of 181 to 183 °C.
Then `Nc1nnc(-c2ccc([N+](=O)[O-])cc2)s1`, with 202 to 204 °C; and `CCCCOc1ccc(NC(=O)C(F)(F)C(F)(F)C(F)(F)C(F)(F)C(F)(F)C(F)(F)C(F)(F)C(F)(F)F)cc1`, with 136 to 138 °C.
Then `O=C(C=Cc1ccsc1)c1ccccc1`, with 88 °C; and `CC1(C)OCC(C(O)C(O)C2COC(C)(C)O2)O1` (stereo not drawn), with 114 °C; and `COC(=O)C(=O)CC(C)=O`, with 63 to 64 °C.
Under `CSc1ncc(CO)n1Cc1ccccc1` stands 109 to 111 °C; under `Nc1ccc(Nc2ccc(N)c3c2C(=O)c2ccccc2C3=O)c2c1C(=O)c1ccccc1C2=O`, 275 °C; under `CC(=NO)C(=O)c1ccccc1`, 114 °C.
The compound `CCOC(=O)c1ccccc1C(=O)c1ccccc1` returned a melting point of 59.5 °C.

The term melting point denotes the temperature, or range, at which the solid turns liquid.
